Data published in publication PMC12091851, “Replacing a Cereblon Ligand by a DDB1 and CUL4 Associated Factor 11 (DCAF11) Recruiter Converts a Selective Histone Deacetylase 6 PROTAC into a Pan‐Degrader” (Chemmedchem, 2025).

Biological target: HDAC2 (Homo sapiens, UniProt Q92769)
Test: Immunoblot HDAC2 degradation in MM.1S cell lysates
Format: cell-based
Set-up: endogenous in cells; host or cells: MM.1S
Settings: MM1.S, MM.1S cells, 24 h, read-out: maximal degradation (Dmax) HDAC2
Method: Figure 6 Examination of HDAC isoform degradation. MM.1S cells were treated with the indicated compounds (10 μM) or vehicle (DMSO) for 24 h. HDAC1, 2, 4, and 6 levels were analyzed by immunoblotting. (A) Representative images from a total of n=3 biological replicates. […]
The cell lysis was performed as descripted in 3.2. Simple Western Immunoassay. Samples were denatured by Laemmli 2× Concentrate (Catalog# S3401-10VL, Sigma-Aldrich) for 5 min at 95 °C, and Precision Plus Protein Unstained Standard was used as molecular weight marker (Catalog# 1610363, Bio-Rad, Hercules, CA, USA). SDS-PAGE was performed with 10 or 12% Mini-PROTEAN TGX Stain-Free Gel (Catalog# 458035, Bio -Rad) at 200 V for 50 min (Catalog# 458035, Bio -Rad).
Afterwards, proteins were transferred with the Trans -Blot Turbo Transfer System (Catalog# 1704150, Bio-Rad) to Immobilon-FL PVDF membranes (Catalog# IPFL00005, Mill ipore Merck, Burlington, MA, USA) at 1.0 A for 30 min and treated with 5% milk-powder solution for 1 h at room temperature under slight agitation. […] The ChemiDoc XRS+ System (Catalog# 1708265 , Bio-Rad) was used for detection and Image Lab Software 6.1 (Bio-Rad) for quantification. […]

Sequence of HDAC2 (Q92769 whole entry): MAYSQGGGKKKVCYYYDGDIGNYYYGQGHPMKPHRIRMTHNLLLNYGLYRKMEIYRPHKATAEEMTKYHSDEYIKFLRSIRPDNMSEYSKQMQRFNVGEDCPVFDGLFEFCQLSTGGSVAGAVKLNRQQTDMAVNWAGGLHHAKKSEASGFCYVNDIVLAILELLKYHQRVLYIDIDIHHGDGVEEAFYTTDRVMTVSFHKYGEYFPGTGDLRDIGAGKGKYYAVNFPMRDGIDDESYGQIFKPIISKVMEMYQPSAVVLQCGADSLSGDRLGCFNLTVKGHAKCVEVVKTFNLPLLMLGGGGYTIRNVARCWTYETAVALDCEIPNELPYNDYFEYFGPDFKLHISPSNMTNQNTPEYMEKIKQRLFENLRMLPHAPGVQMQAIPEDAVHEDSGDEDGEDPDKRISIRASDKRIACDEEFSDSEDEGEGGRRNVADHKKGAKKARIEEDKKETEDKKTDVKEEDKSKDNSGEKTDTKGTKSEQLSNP

Structure (SMILES): O=C(CCCCCCNC(=O)c1ccc(NC(=O)CCCCCCCCCCCN(C(=O)CCl)C(C(=O)NCc2ccccc2)c2ccc(Cl)c(Cl)c2)cc1)NO (centres unmarked) [Compound 1j]
- Dmax at 10 µM: 71 to 76%

Structure (SMILES): O=C(CCCCCCNC(=O)c1ccc(N(C(=O)CCl)C(C(=O)NCc2ccccc2)c2ccc(Cl)c(Cl)c2)cc1)NO (centres unmarked) [Compound 2]
- Dmax at 10 µM: 51%
